Drawing on patent publication US12595248B2, “PRMT5 inhibitors” (Merck Sharp & Dohme LLC, priority 2019, dated 2026), this text covers EC50 for 22 molecules.

Assay [1] addresses T1, PRMT5-MEP50 enzyme complex (Homo sapiens, UniProt O14744).
T1 construct: Full-length (FL)-PRMT5-MEP50 enzyme complex (recombinant proteins from baculovirus-transfected Sf21 cells: FL-PRMT5; MW=73837 kDa and FL-MEP50; MW=38614); made in house; host or cells: baculovirus-transfected Sf21 cells
Description: PRMT5-MEP50 Enzyme Methylation Assay (Version A). Type of assay: biochemical. As for the experimental part:
PRMT5-MEP50 Enzyme Methylation Assay (Version A)
PRMT5-MEP50 biochemical assay is a direct measurement of the methylation activity of the enzyme complex on a short peptide substrate derived from the N-terminus of H4 histone. Methylation experiment was performed with recombinant PRMT5-MEP50 protein complex. The assessment of inhibitory effect of small molecules was measured by the effectiveness of the compounds to inhibit this reaction (EC50).
In this assay, the potency (EC50) of each compound was determined from a twenty-point (1:2 serial dilution; top compound concentration of 100000 nM) titration curve using the following outlined procedure. To each well of a white ProxiPlus 384 well-plate, 100 nL of compound (1% DMSO in final assay volume of 10 μL) was dispensed, followed by the addition of 8 μL of 1× assay buffer (50 mM Bicine pH 8.0, 1 mM DTT, 0.004% Tween20, 0.01% BSA) containing 1.25 nM of Full-length (FL)-PRMT5-MEP50 enzyme complex (recombinant proteins from baculovirus-transfected Sf21 cells: FL-PRMT5; MW=[…] and FL-MEP50; MW=38614) and 1 μL of 150 μM S-(5′-Adenosyl)-L-Methionine Chloride (SAM). A plate was sealed and placed in a 37° C. humidified chamber for a 60 minutes pre-incubation with compound. Subsequently, each reaction was initiated by the addition of 1 μL 1× assay buffer containing 750 nM biotinylated H4R3 (MeI) peptide. The final reaction in each well of 10 μL consists of 1.0 nM PRMT5-MEP50, 75 nM biotinylated-peptide, and 15 μM SAM. Methylation reactions were allowed to proceed for 150 minutes in a sealed plate at 37° C. Reactions were immediately quenched by the addition of 1 μL of 5% formic acid. A plate was then frozen and shipped to SAMDI™ Tech Inc. to determine the percent conversion from H4R3 (MeI) to H4R3 (Me2). Dose-response curves were generated by plotting percent effect (% product conversion; Y-axis) vs. Log 10 compound concentrations (X-axis). EC50 values were determined by non-linear regression according to models for either sigmoidal (4 parameters) or biphasic (7 parameters) dose-response curves.

The next assay has as its target T2, PRMT5 (Homo sapiens, UniProt O14744).
T2 construct: seeded with 4000 MCF-7 cells in 30 μl media; endogenous in cells; host or cells: MCF-7 cells
Description: PRMT5 Cell Target Engagement (TE) Assay. The assay is classed as cell-based. The note with it: MCF-7 cells, treated for 3 days, symmetric dimethylation of arginine (SDMA) by high content imaging. The method, boiled down:
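Readout is single-cell nuclear symmetric-dimethylarginine immunofluorescence (Alexa488), normalized to DMSO-treated cells. Compounds were applied to MCF-7 cells for 3 days at 37 °C, top concentration 10000 nM in 1:3 steps over ten points; curves fitted with 4-parameter robust fit.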

The mark [2] stands for this setting: only one EC50 shown: 4 parameters single site sigmoidal model, 60 min pre-incubation with SAM, read-out: Enzyme Methylation Assay Version A (EC50).
[3] abbreviates: first of two EC50s: 7 parameters biphasic model, read-out: Enzyme Methylation Assay Version A (EC50_1).
The mark [4] stands for this setting: second of two EC50s: 7 parameters biphasic model, read-out: Enzyme Methylation Assay Version A (EC50_2).

Where two headings read alike, the source gives them in different places.

T1 sequence (O14744 whole entry): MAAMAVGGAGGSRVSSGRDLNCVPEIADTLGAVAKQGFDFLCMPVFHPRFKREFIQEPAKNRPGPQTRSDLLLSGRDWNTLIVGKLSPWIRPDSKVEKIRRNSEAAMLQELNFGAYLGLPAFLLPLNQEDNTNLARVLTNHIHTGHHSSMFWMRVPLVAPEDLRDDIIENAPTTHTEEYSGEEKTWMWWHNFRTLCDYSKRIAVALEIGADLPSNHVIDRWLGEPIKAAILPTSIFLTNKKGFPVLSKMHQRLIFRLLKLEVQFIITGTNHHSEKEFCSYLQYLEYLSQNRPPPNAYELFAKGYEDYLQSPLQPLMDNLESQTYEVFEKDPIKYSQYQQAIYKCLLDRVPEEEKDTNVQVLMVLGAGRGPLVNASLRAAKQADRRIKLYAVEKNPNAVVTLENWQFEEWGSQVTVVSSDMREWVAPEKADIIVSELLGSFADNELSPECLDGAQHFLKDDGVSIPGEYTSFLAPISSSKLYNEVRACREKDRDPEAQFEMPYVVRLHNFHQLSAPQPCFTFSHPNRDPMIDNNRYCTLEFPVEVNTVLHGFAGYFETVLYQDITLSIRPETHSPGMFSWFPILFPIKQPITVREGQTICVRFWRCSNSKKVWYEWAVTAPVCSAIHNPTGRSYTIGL
T1 sequence (Q9BQA1 whole entry partner): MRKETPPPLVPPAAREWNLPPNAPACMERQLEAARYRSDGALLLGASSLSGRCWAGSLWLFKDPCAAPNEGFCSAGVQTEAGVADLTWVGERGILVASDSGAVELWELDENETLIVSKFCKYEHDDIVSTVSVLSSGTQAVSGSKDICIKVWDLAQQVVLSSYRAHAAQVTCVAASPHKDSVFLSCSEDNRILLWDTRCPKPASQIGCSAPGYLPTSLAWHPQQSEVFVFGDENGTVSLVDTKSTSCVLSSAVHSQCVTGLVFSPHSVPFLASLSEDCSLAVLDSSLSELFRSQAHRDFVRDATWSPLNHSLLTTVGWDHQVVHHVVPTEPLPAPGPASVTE
T2 sequence (O14744 whole entry): as the sequence (O14744 whole entry) above
T2 sequence (Q9BQA1 whole entry partner): as the sequence (Q9BQA1 whole entry partner) above

For the molecule `CC1(C)CC1(C#N)c1cnc2nc(C(=O)N3CC[C@H](N4CCc5ccccc5C4)[C@@H](O)C3)cn2c1` (single isomer, unassigned) [Example 127], the values for the EC50 (in assay [1] (setting [2]); on PRMT5) were 0.4 nM and 12 nM, respectively.

As to `O=C(c1ccc2c(c1)NCCN(CC(F)(F)F)C2=O)N1CC[C@H](N2CCc3ccccc3C2)[C@@H](O)C1` [Example 102, 8-((3S,4S)-4-(3,4-dihydroisoquinolin-2(1H)-yl)-3-hydroxypiperidine-1-carbonyl)-4-(2,2,2-trifluoroethyl)-1,2,3,4-tetrahydro-5H-benzo[e][1,4]diazepin-5-one], the EC50 in assay [1] (setting [3]) is 1.5 nM; in assay [1] (setting [4]) it was 905 nM; at PRMT5, 10 nM.

Turning to `CO[C@H](C)c1cc(C)cn2cc(C(=O)N3CC[C@H](N4CCc5ccccc5C4)[C@@H](O)C3)nc12` [Example 59, [(3S,4S)-4-(3,4-dihydroisoquinolin-2(1H)-yl)-3-hydroxypiperidin-1-yl]{8-[(1R)-1-methoxyethyl]-6-methylimidazo[1,2-a]pyridin-2-yl}methanone], the EC50 worked out at 0.5 nM in assay [1] (setting [2]) and 4.4 nM on PRMT5.

Take `O=C(c1cn2cc(Br)cc(F)c2n1)N1CC[C@H](N2CCc3ccccc3C2)[C@@H](O)C1` [Example 141, (6-bromo-8-fluoroimidazo[1,2-a]pyridin-2-yl)[(3S,4S)-4-(3,4-dihydroisoquinolin-2(1H)-yl)-3-hydroxypiperidin-1-yl]methanone]: the EC50 is 1.1 nM in assay [1] (setting [2]) and 21 nM on PRMT5.

Take `CC(C#N)c1cnc2nc(C(=O)N3CC[C@H](N4CCc5ccccc5C4)[C@@H](O)C3)cn2c1` (stereo partly drawn) [Example 77, 2-{2-[(3S,4S)-4-(3,4-dihydroisoquinolin-2(1H)-yl)-3-hydroxypiperidine-1-carbonyl]imidazo[1,2-a]pyrimidin-6-yl}propanenitrile]: the EC50 in assay [1] (setting [2]) turned out to be 2.1 nM; on PRMT5, 13 nM.

In the case of `O=C(c1cc(NC2CCN3C(=O)CCC3C2)ncc1F)N1CC[C@H](N2CCc3ccccc3C2)[C@@H](O)C1` (single isomer, unassigned) [Example 118], the values for the EC50 (in assay [1] (setting [3]); in assay [1] (setting [4]); on PRMT5) were 2.9 nM, 10600 nM and 55 nM, respectively.

In the case of `Cc1cc(Br)cn2cc(C(=O)N3CC[C@H](N4CCc5ccccc5C4)[C@@H](O)C3)nc12` [Example 135, (6-bromo-8-methylimidazo[1,2-a]pyridin-2-yl)[(3S,4S)-4-(3,4-dihydroisoquinolin-2(1H)-yl)-3-hydroxypiperidin-1-yl]methanone], the EC50 in assay [1] (setting [2]) was determined as 1.7 nM; on PRMT5 it was 12 nM.

For `O=C(c1cc(NC2CCN3C(=O)CCC3C2)ncc1F)N1CC[C@H](N2CCc3ccccc3C2)[C@@H](O)C1` (single isomer, unassigned) [Example 116], the EC50 came out at 3.9 nM in assay [1] (setting [2]) and 6.6 nM on PRMT5.

Turning to `O=C(c1cn2cc(Br)c(O)nc2n1)N1CC[C@H](N2CCc3ccccc3C2)[C@@H](O)C1` [Example 70, (6-bromo-7-hydroxyimidazo[1,2-a]pyrimidin-2-yl)((3S,4S)-4-(3,4-dihydroisoquinolin-2(1H)-yl)-3-hydroxypiperidin-1-yl)methanone], the EC50 in assay [1] (setting [3]) was approximately 45 nM; in assay [1] (setting [4]) it was 86100 nM; on PRMT5, more than 10000 nM.

Consider `CC(=O)N1CCC(Nc2nccc(C(=O)N3CC[C@H](N4CCc5ccccc5C4)[C@@H](O)C3)c2F)CC1` [Example 18, 1-(4-((4-((3S,4S)-4-(3,4-dihydroisoquinolin-2(1H)-yl)-3-hydroxypiperidine-l-carbonyl)-3-fluoropyridin-2-yl)amino)piperidin-1-yl)ethan-1-one], for which the EC50 in assay [1] (setting [3]) is approximately 3 nM; in assay [1] (setting [4]) it was 6760 nM; on PRMT5 it was 54 nM.

With `Cc1c(Br)cnc2nc(C(=O)N3CC[C@H](N4CCc5ccccc5C4)[C@@H](O)C3)cn12` [Example 66, (6-bromo-5-methylimidazo[1,2-a]pyrimidin-2-yl)((3S,4S)-4-(3,4-dihydroisoquinolin-2(1H)-yl)-3-hydroxypiperidin-1-yl)methanone], the EC50 came to 5.2 nM in assay [1] (setting [3]), 861 nM in assay [1] (setting [4]) and 1810 nM at PRMT5.

With `CC1CC1c1cnc2nc(C(=O)N3CCC(N4CCc5ccccc5C4)[C@@H](O)C3)cn2c1` (single isomer, unassigned) [Example 130], the figures for the EC50 (in assay [1] (setting [2]); at PRMT5) were 0.7 nM and 3.8 nM, respectively.

For the molecule `O=C(c1cc2ncc(Br)cn2n1)N1CC[C@H](N2CCc3ccccc3C2)[C@@H](O)C1` [Example 143, (6-bromopyrazolo[1,5-a]pyrimidin-2-yl)[(3S,4S)-4-(3,4-dihydroisoquinolin-2(1H)-yl)-3-hydroxypiperidin-1-yl]methanone], the EC50 turned out to be 2.8 nM in assay [1] (setting [3]), 1820 nM in assay [1] (setting [4]) and 806 nM at PRMT5.

For `CC(C)(C)OC(=O)N1C2CCC1CC(Nc1cc(C(=O)N3CC[C@H](N4CCc5ccccc5C4)[C@@H](O)C3)c(F)cn1)C2` (stereo partly drawn) [Example 104, tert-butyl-3-((4-((3S,4S)-4-(3,4-dihydroisoquinolin-2(1H)-yl)-3-hydroxypiperidine-1-carbonyl)-5-fluoropyridin-2-yl)amino)-8-azabicyclo[3.2.1]octane-8-carboxylate], the EC50 in assay [1] (setting [2]) is 1.7 nM; at PRMT5, 42 nM.

On to `O=C(c1ccnc(C(F)F)c1)N1CC[C@H](N2CCc3ccccc3C2)[C@@H](O)C1` [Example 52, (2-(difluoromethyl)pyridin-4-yl)((3S,4S)-4-(3,4-dihydroisoquinolin-2(1H)-yl)-3-hydroxypiperidin-1-yl)methanone], for which the EC50 in assay [1] (setting [2]) is 580 nM; on PRMT5 it was more than 10000 nM.

Consider `O=C(c1cn2cc(Br)cc(Br)c2n1)N1CC[C@H](N2CCc3ccccc3C2)[C@@H](O)C1` [Example 142, (6,8-dibromoimidazo[1,2-a]pyridin-2-yl)[(3S,4S)-4-(3,4-dihydroisoquinolin-2(1H)-yl)-3-hydroxypiperidin-1-yl]methanone], for which the figures for the EC50 (in assay [1] (setting [2]); on PRMT5) were 1.1 nM and 8.6 nM, respectively.

Turning to `O=C(c1cn2cc(Br)ccc2n1)N1CC[C@H](N2CCc3ccccc3C2)[C@@H](O)C1` (single isomer, unassigned) [Example 1], the EC50 in assay [1] (setting [2]) turned out to be 1.1 nM; on PRMT5 it was 9.8 nM.

As to `Cn1nccc1-c1cnc2nc(C(=O)N3CC[C@H](N4CCc5ccccc5C4)[C@@H](O)C3)cn2c1` [Example 57, [(3S,4S)-4-(3,4-dihydroisoquinolin-2(1H)-yl)-3-hydroxypiperidin-1-yl][6-(1-methyl-1H-pyrazol-5-yl)imidazo[1,2-a]pyrimidin-2-yl]methanone], the EC50 in assay [1] (setting [2]) was determined as 1.1 nM; at PRMT5 it was 8.7 nM.

Turning to `Cc1cc(Br)c2nc(C(=O)N3CC[C@H](N4CCc5ccccc5C4)[C@@H](O)C3)cn2c1` [Example 134, (8-bromo-6-methylimidazo[1,2-a]pyridin-2-yl)[(3S,4S)-4-(3,4-dihydroisoquinolin-2(1H)-yl)-3-hydroxypiperidin-1-yl]methanone], the EC50 in assay [1] (setting [3]) amounted to 1.8 nM; in assay [1] (setting [4]) it was 202 nM; on PRMT5, 43 nM.

With `CC(C)N1CCNc2cc(C(=O)N3CC[C@H](N4CCc5ccccc5C4)[C@@H](O)C3)ccc2C1=O` [Example 62, 8-((3S,4S)-4-(3,4-dihydroisoquinolin-2(1H)-yl)-3-hydroxypiperidine-1-carbonyl)-4-isopropyl-1,2,3,4-tetrahydro-5H-benzo[e][1,4]diazepin-5-one], the EC50 in assay [1] (setting [2]) is 3.6 nM; at PRMT5 it was 21 nM.

With `O=C(c1cc(NC2CC3CCC(C2)N3)ncc1F)N1CC[C@H](N2CCc3ccccc3C2)[C@@H](O)C1` (stereo partly drawn) [Example 121, (2-((8-azabicyclo[3.2.1]octan-3-yl)amino)-5-fluoropyridin-4-yl)((3S,4S)-4-(3,4-dihydroisoquinolin-2(1H)-yl)-3-hydroxypiperidin-1-yl)methanone], the EC50 in assay [1] (setting [3]) amounted to 14 nM; in assay [1] (setting [4]) it was 2880 nM; at PRMT5 it was 1590 nM.

Consider `O=C(c1cc(NC2CCN3C(=O)CCC3C2)ncc1F)N1CC[C@H](N2CCc3ccccc3C2)[C@@H](O)C1` (single isomer, unassigned) [Example 115], for which the results for the EC50 (in assay [1] (setting [2]); on PRMT5) were 6.5 nM and 140 nM, respectively.
